{"source": "patent US8883679B2", "about": "“Liquid mycorrhiza compositions” (Novozymes A/S, priority 2007, dated 2014)", "system": "roots of corn plants", "experiment": "endomycorrhizal mean infection percentage (MIP) bioassay", "format": "in vivo, Zea Maize 'Golden Bantam'", "conditions": "both trials", "experimental": "An endomycorrhizal mean infection percentage (MIP) bioassay was initiated to test mycorrhizal infectivity of a liquid mycorrhizal formulation treated with bactericides. The MIP bioassay is used to determine the effect of endomycorrhizal colonization in the roots of corn plants on the treatment applied. The MIP bioassay was adapted to utilize 15 mL of liquid per pot. The liquid mycorrhizal formulation which was tested was MycoApply Ultra (Novozymes Biologicals), which is a mycorrhizal inoculant that contains several species of endomycorrhizas. For a ready to use fertilizer, the optimal amount of mycorrhizas to be added based on application rate of ready to use fertilizer, mycorrhizal infectivity, and cost effectiveness was 0.1 propagules of mycorrhizas per 1.0 mL of ready to use fertilizer. MycoApply Ultra contains 286 propagules per gram, therefore 0.00034 g MycoApply Ultra in 1 mL of ready to use fertilizer will provide the desired concentration of mycorrhizal propagules, 0.1 prop/mL. The MycoApply Ultra was tested with two different concentrates 10× (0.0034 g/mL) and 100× (0.034 g/mL). The bactericide used in all treatments for Trial 1 was 500 ppm Kathon and 250 ppm Bronopol. There were seven treatment groups, each contained 5 replicates. Treatment 1 was a water only control. […] At harvest the parameter evaluated was percent mycorrhizal colonization. […]"}
{"smiles": "O=[N+]([O-])C(Br)(CO)CO", "note": "[Bronopol, 2-bromo-2-nitro-1,3-propanediol]", "values": [{"measurement": "ability of mycorrhizas to germinate and infect roots in presence of bactericide", "result": "increase"}]}
